The results in this text go back to publication PMC8867149, “Phosphorylated and Phosphonated Low‐Complexity Protein Segments for Biomimetic Mineralization and Repair of Tooth Enamel” (Advanced Science, 2022).

In this data set the target is T1, Alkaline phosphatase, calf intestinal (ALP) (Bos taurus, UniProt P19111).
T1 construct: purchased New England BioLabs (printed 'NEW ENGLANK BioLabs Inc.') M0290
Briefly: Stability of phosphate/phosphonate group in the presence of ALP (HPLC). Format: in vitro ADME. Conditions: 10 U mL^−1 ALP (calf intestinal), half an hour; peptide assemblies; HPLC read-out. The procedure:
Figure 2 Characterization of LCPSs and their self‐assembly. a) FTIR characterization of different molecular structures among the LCPS peptides with a concentration of 10 mg mL^−1 LCPS assembly solution. b) Negatively stained TEM images showing the self‐assembled structures of LCPS‐OH, LCPS‐OP, and LCPS‐CP at pH 3.0, 5.0, 7.0, and 9.0. c) Zeta potential values of LCPSs at pH 7. The data are the means ± SD (n = 3 repeats per group). d) CD spectra of LCPS‐OH, LCPS‐OP, and LCPS‐CP assembly solutions (10 mg mL^−1) at pH 7. Self‐assembly of e) LCPS‐OP and f) LCPS‐CP after the addition of ALP. g) HPLC charts chromatograms of LCPS solutions with or without the addition of ALP. The LCPSs were incubated with 10 U mL^−1 ALP for half an hour.
The aggregated peptides were mineralized in the neutral condition directly as mentioned above, in the presence of 10 U mL^−1 ALP (calf‐intestinal). After assembling, 10 µL of the peptide assembly solution was diluted with equal volume of ddH2O. Then, 100 µL of the 1.35 × 10^−3 M CaCl2 solution containing 10 U mL^−1 ALP was added into the peptide assembly solution, and the resultant mixed solution was vibrated for 1 h to ensure the binding of calcium ions with the peptide aggregates. Next, 100 µL of the 0.81 × 10^−3 M K2HPO4 solution containing 10 U mL^−1 ALP was added dropwise for about 1 h while vibrating. […]

Each structure is given as a SMILES string. Non-standard residues stand in square brackets, D forms with d. Residues, ends and D or L forms follow the SMILES beside them. pS = N[C@@H](COP(=O)(O)O)C(=O)O

T1 sequence (P19111 20-533): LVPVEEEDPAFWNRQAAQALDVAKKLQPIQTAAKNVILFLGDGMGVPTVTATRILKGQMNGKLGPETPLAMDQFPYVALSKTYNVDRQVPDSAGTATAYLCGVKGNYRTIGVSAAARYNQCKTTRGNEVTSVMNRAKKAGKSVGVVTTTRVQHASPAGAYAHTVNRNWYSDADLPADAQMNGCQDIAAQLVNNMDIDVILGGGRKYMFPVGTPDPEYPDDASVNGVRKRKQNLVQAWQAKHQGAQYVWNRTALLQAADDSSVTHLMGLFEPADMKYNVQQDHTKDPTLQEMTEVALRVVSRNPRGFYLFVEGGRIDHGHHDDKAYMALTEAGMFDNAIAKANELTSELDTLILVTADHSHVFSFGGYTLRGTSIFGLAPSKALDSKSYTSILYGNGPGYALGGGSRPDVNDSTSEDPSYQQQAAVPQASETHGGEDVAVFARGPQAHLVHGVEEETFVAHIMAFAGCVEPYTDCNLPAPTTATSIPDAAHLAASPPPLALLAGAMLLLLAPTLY

For `N[C@@H](CO)C(=O)N[C@@H](Cc1ccc(O)cc1)C(=O)N[C@@H](COP(=O)(O)O)C(=O)NCC(=O)N[C@@H](Cc1ccc(O)cc1)C(=O)N[C@@H](CO)C(=O)O` [LCPS‐OP] (H-SY[pS]GYS-OH), the “stability of phosphate/phosphonate group in the presence of ALP” value is recorded as “completely hydrolyzed”.
